From patent publication US8722910B2, “Diyne compositions” (Evolva AG, priority 2009, dated 2014)
Values after ≈ are worked out from the molar mass of the structure shown. Like-named read-outs stand apart in the source and are kept apart here.

Tests used:
[1] = tested on: C. albicans; experiment: Susceptibility of clinical isolates (MIC, broth dilution); type: cell-based
Description: (§1) The efficacy of compound IV″ was investigated on 563 clinical isolates of 33 human fungal pathogens. […] For species with n≧10, the MIC90 (MIC, minimal inhibitory concentration) is given as ng/ml. For species with n≦10, the MIC range is given as ng/ml. 24 h and 48 h reads are indicated (Table 1).
(§2) The in vitro efficacy of antifungal compounds is determined in susceptibility assays, which are indicative for the spectrum and potency of a compound. Susceptibilities are reported as minimal inhibitory concentrations (MIC, as ng/ml or μg/ml) required to inhibit growth to a defined degree compared to the drug free control. The MIC90 defines the MIC required to inhibit growth for ≧90% of the strains of a population tested.
(§3) The MIC90 was calculated for the indicated species.

[2] = tested on: C. dubliniensis; experiment: as above; type: cell-based
Description: as §1, §2, §3

[3] = tested on: C. glabrata; experiment: as above; type: cell-based
Description: as §1, §2, §3

[4] = tested on: C. krusei; experiment: as above; type: cell-based
Description: as §1, §2, §3

[5] = tested on: C. lusitaniae; experiment: as above; type: cell-based
Description: as §1, §2, §3

[6] = tested on: C. parapsilosis; experiment: as above; type: cell-based
Description: as §1, §2, §3

[7] = tested on: C. tropicalis; experiment: as above; type: cell-based
Description: as §1, §2, §3

[8] = tested on: OLE1; experiment: OLE1 expression by real time PCR; type: cell-based, S. cerevisiae
Description: The expression of OLE1 was determined by real time PCR 10, 60, 120 and 240 min after compound addition (Knechtle, P. and Greve, K., 2009). OLE1 transcript levels were calibrated to the expression of the tubulin gene (TUB1) and normalized to the OLE1 expression at 10 min without compound addition (FIG. 17(a)).
The expression of the OLE1 gene was determined by real time PCR 10, 60, 120 and 240 min for the conditions a.-e., as indicated in Table 3 above. OLE1 transcript levels were calibrated to the expression of the tubulin gene (TUB1) and normalized to the OLE1 expression at 10 min without compound addition. See FIG. 17a showing time dependent expressions of OLE1 in response to compound IV″. Conditions a.-e. are listed in Table 3 above, numbers indicate time intervals in minutes. Expressions of OLE1 are given as multiples of the expression at 10 min, condition a. […] 10 μg/ml oleic acid compensated for the OLE1 expression increase caused by 1 μg/ml compound IV alone. Compound IV″ dependent up-regulation of OLE1 expression thus confirms that compound IV″ is acting as an inhibitor of the Ole1 protein. The antagonistic effect of oleic acid found in the susceptibility assays, is reflected mechanistically in this experiment by a down-regulation of the target Ole1 protein through oleic acid.

[9] = tested on: Microsporum canis; experiment: In vitro antifungal activity vs. dermatophytes (MIC/MFC); type: cell-based; conditions: Microsporum canis (n = 15)
[10] = tested on: Epidermophyton floccosum; experiment: as above; type: cell-based; conditions: Epidermophyton floccosum (n = 15)
[11] = tested on: T. rubrum, Terbinafine resistant isolates; experiment: as above; type: cell-based
[12] = tested on: M. gypseum; experiment: as above; type: cell-based; conditions: M. gypseum (n = 1)
[13] = tested on: C. glabrata; experiment: In vitro antifungal activity vs. yeasts (MIC/MFC); type: cell-based; conditions: Nakaseomyces glabratus, C. glabrata (n = 1)
[14] = tested on: Escherichia coli 700; experiment: In vitro Antibacterial Activity; type: cell-based
[15] = In vitro Mammalian Cell Cytotoxicity; type: cell-based; conditions: human, HFF cells
[16] = tested on: C. albicans; experiment: Time course of the fungicidal effect; type: cell-based; conditions: after 3 hours of incubation
Source text: Samples were removed periodically, filtered, washed and plated onto nutrient agar.

[17] = tested on: ergosterol biosynthesis; experiment: 13C-acetate incorporation into ergosterol; type: cell-based, Candida albicans; conditions: drug at about its MIC, added after the first 15 minutes
[18] = tested on: C. albicans; experiment: Effect on the morphology of growing Candida albicans cultures; type: cell-based; conditions: inhibiting concentrations
[19] = tested on: Trichophyton mentagrophytes; experiment: Guinea pig skin infection, topical dosing; type: in vivo; conditions: guinea pigs
Description: The efficacy of compound III″ in skin infections of small mammals was shown in guinea pigs infected with Trichophyton mentagrophytes on abrased skin. Compound III″ was administered topically at 0.1% or 1% once daily for seven days. Fungal burden decreased by 82% and 98% respectively, compared to the untreated control (see FIG. 13 showing topical fungal burden as determined by culture positive hair removed from the site of infection).

[20] = tested on: Candida albicans; experiment: In vitro fungicidal activity vs. Candida albicans

SMILES: O=C([O-])CCCCCCC/C=C\C#CC#Cc1ccco1.[K+] [Compound IV″, potassium (Z)-14-(furan-2-yl)tetradeca-9-en-11,13-diynoate]
- MIC90/MIC range 48 h ([1]; C. albicans (n = 20), MIC90, 48 h): 2.5 ng/mL
- MIC90 ([1]; Candida albicans, 24 h): 2.5 ng/mL
- MIC90/MIC range 48 h ([2]; C. dubliniensis (n = 25), MIC90, 48 h): 2.5 ng/mL
- MIC90 ([2]; Candida dubliniensis, 24 h): 2.5 ng/mL
- MIC90/MIC range 48 h ([3]; C. glabrata (n = 25), MIC90, 48 h): 20 ng/mL
- MIC90 ([3]; Nakaseomyces glabratus, 24 h): 20 ng/mL
- MIC90/MIC range 48 h ([4]; C. krusei (n = 27), MIC90, 48 h): 20 ng/mL
- MIC90 ([4]; Pichia kudriavzevii, 24 h): 20 ng/mL
- MIC90/MIC range 48 h ([5]; C. lusitaniae (n = 24), MIC90, 48 h): 128 ng/mL
- MIC90 ([5]; Clavispora lusitaniae, 24 h): 128 ng/mL
- MIC90/MIC range 48 h ([6]; C. parapsilosis (n = 37), MIC90, 48 h): 1024 ng/mL
- MIC90 ([6]; Lodderomyces parapsilosis, 24 h): 1020 ng/mL
- MIC50 ([6]; Lodderomyces parapsilosis, 24 h, read-out: calculated MIC50): 128 ng/mL
- MIC90/MIC range 48 h ([7]; C. tropicalis (n = 35), MIC90, 48 h): 5 ng/mL
- MIC90 ([7]; Candida tropicalis, 24 h): 5 ng/mL
- increase of the expression level of OLE1 ([8]; 1 μg/ml, 10-240 min): 3-5 fold
- increase of the expression level of OLE1 ([8]; 1 μg/ml, at 120 min): 4.9 fold
- increase of the expression level of OLE1 ([8]; 10 μg/ml, 10-240 min): 7-19 fold
- increase of the expression level of OLE1 ([8]; 10 μg/ml, at 120 min): 18.7 fold

SMILES: O=C(O)CCCCCCC/C=C\C#CC#Cc1ccco1 [Compound III″]
- MIC ([9]; 96 h, 35° C., 4 days): < 0.06 ng/mL
- MFC [9]: 0.5 ng/mL (≈ 1.76 nM)
- MIC90/MIC range 48 h ([9]; MIC90, 48 h): <0.06 ng/mL
- MIC ([10]; 96 h, 35° C., 4 days): < 0.06 ng/mL
- MFC [10]: 15 ng/mL (≈ 52.8 nM)
- MIC90/MIC range 48 h ([10]; MIC90, 48 h): <0.06 ng/mL
- MIC90/MIC range 48 h ([11]; T. rubrum, Terbinafine resistant isolates (n = 9), 48 h): <0.06 ng/mL
- MIC ([11]; Trichophyton rubrum, 96 h, T. rubrum (TERB-resistant) (n = 9), 35° C., 4 days): < 0.06 ng/mL
- MFC ([11]; Trichophyton rubrum, T. rubrum (TERB-resistant) (n = 9)): < 0.06 ng/mL
- MIC90/MIC range 48 h ([12]; 48 h): <0.06 ng/mL
- MIC ([12]; Nannizzia gypsea, 96 h, 35° C., 4 days): < 0.06 ng/mL
- MFC ([12]; Nannizzia gypsea): 16000 ng/mL (≈ 56300 nM)
- MFC [13]: 500 ng/mL (≈ 1760 nM)
- MIC ([13]; 90% inhibition endpoint): 8 ng/mL (≈ 28.1 nM)
- MIC90 [14]: > 200000 ng/mL
- CC50 [15]: 75000 ng/mL (≈ 264000 nM)
- reduction in C. albicans CFUs [16]: > 3 log
- net biosynthesis of ergosterol (13C-acetate incorporation) [17]: did not significantly inhibit the net biosynthesis of ergosterol
- effect on hyphal tube formation ([18]; microscopy): prevented hyphal tube formation
- effect on cell growth ([18]; microscopy and MTT): fungicidal, totally preventing cell growth
- decrease of fungal burden (culture positive hair) ([19]; topically 0.1% once daily for seven days): 82%
- decrease of fungal burden (culture positive hair) ([19]; topically 1% once daily for seven days): 98%
- Fungicidal Concentration ([20]; Candida albicans): 0.4 ng/mL
- MIC90 ([20]; Candida albicans, 24 h, read-out: MIC90 24 h): 0.4 ng/mL (≈ 1.41 nM)
- MIC90 ([20]; Candida albicans, 48 h, read-out: MIC90 48 h): 0.4 ng/mL (≈ 1.41 nM)
- remaining organisms ([20]; growth-negative samples after 24 hr incubation, subcultured): < 5 cfu/ml
